ChEMBL document CHEMBL4610080, “Natural Products as Sources of New Drugs over the Nearly Four Decades from 01/1981 to 09/2019” (2020)

Legend:
Format in all cases: functional
Staphylococcus aureus = assay: Antibacterial activity against Staphylococcus aureus NCTC 8325 assessed as reduction in microbial growth
[1] = test system: Mycobacterium tuberculosis; assay: Antibacterial activity against Mycobacterium tuberculosis assessed as reduction in microbial growth
Enterococcus = assay: Antibacterial activity against vancomycin-resistant Enterococcus assessed as reduction in microbial growth

SMILES	MIC (Staphylococcus aureus) [µg/mL]	MIC [1] [µg/mL]	MIC (Enterococcus) [µg/mL]
CC(=O)NC[C@H]1CN(c2ccc(N3CCOCC3)c(F)c2)C(=O)O1 [LINEZOLID]	1		
CN[C@H](CC(C)C)C(=O)N[C@H]1C(=O)N[C@@H](CC(N)=O)C(=O)N[C@H]2C(=O)N[C@H]3C(=O)N[C@H](C(=O)N[C@H](C(=O)O)c4cc(O)cc(O)c4-c4cc3ccc4O)[C@H](O)c3ccc(c(Cl)c3)Oc3cc2cc(c3O[C@@H]2O[C@H](CO)[C@@H](O)[C@H](O)[C@H]2O[C@H]2C[C@](C)(N)[C@H](O)[C@H](C)O2)Oc2ccc(cc2Cl)[C@H]1O [VANCOMYCIN]	1.4		
O=C(Nc1ccc2c(c1)OC(F)(F)O2)Nc1ccc(Cl)c(C(F)(F)F)c1	0.18	0.93	1
